In experiment [1] the test system is L-selectin. The settings on record: cited from earlier work.
Experiment [2] concerns P-selectin. The settings on record: cited from earlier work.
The test system of another experiment is hemoglobin. The settings on record: avian erythrocytes; cited from earlier work.
Experiment [3] addresses T1, L-selectin-lg fusion protein (Homo sapiens, UniProt P14151).
T1 construct: Each selectin-lg contains the lectin domain, epidermal growth factor domain, and one (L-selectin-lg), two (P-selectin-lg) or six (E-selectin-lg) complement regulatory repeats; made in house
Description: Competition ELISA: binding of L-selectin-Ig to immobilized BSA-sLe^x. The source says: Selectin-lg fusion proteins are recombinant chimeric molecules containing extracellular regions of selectins coupled to the hinge, CH2, and CH3 regions of human IgG1 (Aruffo, A., et al., Cell, 67:35, 1991; Walz, G., et al., Science, 250:1132, 1990). Each selectin-lg contains the lectin domain, epidermal growth factor domain, and one (L-selectin-lg), two (P-selectin-lg) or six (E-selectin-lg) complement regulatory repeats of the parent molecules. DNAs encoding selectin-Ig inserted in pCDM7 allowed transient expression of recombinant proteins in COS cells as previously described (Seed, B., et al., Proc. Natl. Acad. Sci., U.S.A., 84:3365, 1987; Aruffo, A., Current Protocols In Molecular Biology, eds. Ausubel, F. M., et al, 16:13.1, Greene Publishing Associates and Wiley-lnterscience, New York, N.Y., 1992). These DNAs were also ligated into pNUT (Palmiter, R. D., et al, Cell, 50:435, 1987) for amplification and stable expression in BHK cells. The fusion proteins were affinity purified from culture media using protein A (Pierce Chemical Company, Rockford, Ill.) or protein G (Pharmacia, Piscataway, N.J.) Sepharose, as previously described (Aruffo, A., et al., Cell, 67:35, 1991; Aruffo, A., Current Protocols In Molecular Biology, eds. Ausubel, F. M., et al, supra, 1992). Competition binding ELISAs using P- and E-selectin-lg were performed essentially as described (Nelson, R. M., et al., J. Clin. […] Selectin concentrations were from 10 to 30 nM. […] To increase L-selectin binding, an assay similar to that previously described was used (Foxall, C., et al., J. Cell Biol., 117:895, 1992), in which the L-selectin-lg (10-20 nM) was allowed to form aggregates with HRP-conjugated anti-lg antibody for 30 minutes prior to addition of inositols and incubation on the BSA-sLe^x -coated plate. IC50 values were calculated by fitting binding data to the equation: fraction of maximal binding=IC50 […] using nonlinear least squares analysis software (Origin, Microcal Inc, Northampton, Mass.). InsP6 (dodecasodium salt), InsS6 (hexapotassium salt), myo-inositol 1 monophosphate (cyclohexylammonium salt), and myo-inositol were from Sigma Chemical Company (St. Louis, Mo.). Stock solutions were prepared daily in 0.9% NaCl and sterilized by 0.22 μm filtration. InsP6 solutions were adjusted at pH 7.4 with HCl.
(§1) L-, P-, or E-selectin-lg fusion proteins were incubated for 2-3 hours on microtiter plates coated with the neoglycoprotein BSA-sLe^x, the plates washed, and bound selectin-lg was detected using a peroxidase-conjugated antibody directed against the lg portion and a chromogenic substrate. To determine blocking activity, solution-phase lnsP6 (.circle-solid.), InsS6 (.largecircle.), or inositol (.box-solid.) at the indicated concentrations were added to the solutions containing selectin-Ig fusion proteins prior to transfer to microtiter plates (competition ELISA).

The test system of experiment [4] is PMN within the peritoneal cavity. Description: Thioglycollate-induced peritoneal inflammation, PMN accumulation. Type of experiment: in vivo, mice (Balb/c). The settings on record: mice, 80 μmol/kg in two i.v. injections, 2 experiments.
The target of experiment [5] is T2, P-selectin-lg fusion protein (Homo sapiens, UniProt P16109).
T2 construct: Each selectin-lg contains the lectin domain, epidermal growth factor domain, and one (L-selectin-lg), two (P-selectin-lg) or six (E-selectin-lg) complement regulatory repeats; made in house
Description: Competition ELISA: binding of P-selectin-Ig to immobilized BSA-sLe^x.
Excerpt: (§2) Selectin-lg fusion proteins are recombinant chimeric molecules containing extracellular regions of selectins coupled to the hinge, CH2, and CH3 regions of human IgG1 (Aruffo, A., et al., Cell, 67:35, 1991; Walz, G., et al., Science, 250:1132, 1990). Each selectin-lg contains the lectin domain, epidermal growth factor domain, and one (L-selectin-lg), two (P-selectin-lg) or six (E-selectin-lg) complement regulatory repeats of the parent molecules. DNAs encoding selectin-Ig inserted in pCDM7 allowed transient expression of recombinant proteins in COS cells as previously described (Seed, B., et al., Proc. Natl. Acad. Sci., U.S.A., 84:3365, 1987; Aruffo, A., Current Protocols In Molecular Biology, eds. Ausubel, F. M., et al, 16:13.1, Greene Publishing Associates and Wiley-lnterscience, New York, N.Y., 1992). These DNAs were also ligated into pNUT (Palmiter, R. D., et al, Cell, 50:435, 1987) for amplification and stable expression in BHK cells. The fusion proteins were affinity purified from culture media using protein A (Pierce Chemical Company, Rockford, Ill.) or protein G (Pharmacia, Piscataway, N.J.) Sepharose, as previously described (Aruffo, A., et al., Cell, 67:35, 1991; Aruffo, A., Current Protocols In Molecular Biology, eds. Ausubel, F. M., et al, supra, 1992). Competition binding ELISAs using P- and E-selectin-lg were performed essentially as described (Nelson, R. M., et al., J. Clin. Invest., 91:1157, 1993), except that the assay buffer was 20 mM HEPES pH 7.4, 150 mM NaCl, 2 mM CaCl2, and 0.25 mM thimerosal, containing 10 mg/ml BSA, protease-free, (Miles Inc., Kankakee, Ill.). Selectin concentrations were from 10 to 30 nM. […] To increase L-selectin binding, an assay similar to that previously described was used (Foxall, C., et al., J. Cell Biol., 117:895, 1992), in which the L-selectin-lg (10-20 nM) was allowed to form aggregates with HRP-conjugated anti-lg antibody for 30 minutes prior to addition of inositols and incubation on the BSA-sLe^x -coated plate. IC50 values were calculated by fitting binding data to the equation: fraction of maximal binding=IC50 […] using nonlinear least squares analysis software (Origin, Microcal Inc, Northampton, Mass.). InsP6 (dodecasodium salt), InsS6 (hexapotassium salt), myo-inositol 1 monophosphate (cyclohexylammonium salt), and myo-inositol were from Sigma Chemical Company (St. Louis, Mo.). Stock solutions were prepared daily in 0.9% NaCl and sterilized by 0.22 μm filtration. InsP6 solutions were adjusted at pH 7.4 with HCl.
as §1

For experiment [6], the target named is T3, E-selectin-lg fusion protein (Homo sapiens, UniProt P16581).
T3 construct: Each selectin-lg contains the lectin domain, epidermal growth factor domain, and one (L-selectin-lg), two (P-selectin-lg) or six (E-selectin-lg) complement regulatory repeats; made in house
As to the kind of experiment: Competition ELISA: binding of E-selectin-Ig to immobilized BSA-sLe^x.
Excerpt: as §2, §1

A further experiment deals with inflammation. To be noted: rodent model; cited from earlier work.
For experiment [7], the system named is L-selectin. To be noted: cited from earlier work. The source holds these as a separate data set.
In experiment [8] the test system is P-selectin. To be noted: cited from earlier work. The source holds these as a separate data set.
Where [9] appears, read: chelator concentration above 1 mM.
[10] abbreviates: up to a concentration of 1 mM in assay buffer.

“Also recorded” adds a separate entry of the source. Like-named read-outs stand apart in the source and are kept apart here.

With fucoidan, the “L-selectin interaction / dependent adhesion” value in the experiment on L-selectin [1] is “L-selectin adhesion can be blocked; also recorded: interact with both P- and L-selectin”. For the same compound, the “P-selectin interaction / dependent adhesion” value with P-selectin [2] is “interact with both P- and L-selectin”.

As to `O=P(O)(O)O[C@@H]1[C@@H](OP(=O)(O)O)[C@H](OP(=O)(O)O)[C@H](O)[C@H](OP(=O)(O)O)[C@H]1OP(=O)(O)O` [InsP5, inositol pentakisphosphate], the “effect on hemoglobin affinity for oxygen” value with hemoglobin is reported as “increasing its affinity for oxygen”. Moreover, the IC50 in [3] (selected assays, in vitro, read-out: IC50, blocking activity against L-selectin) is 38 ± 17 µM; in experiment [5] (selected assays, in vitro, read-out: IC50, blocking activity against P-selectin), 940 ± 130 µM. Besides, in [4], the “reduced peritoneal influx of PMN (inhibition)” value amounted to 48±6%.

Turning to `CC(=O)N[C@H]1[C@H]([C@H](O)[C@H](O)CO)O[C@@](O[C@H]2[C@@H](O)[C@@H](CO)O[C@@H](O[C@H]3[C@H](O[C@@H]4O[C@@H](C)[C@@H](O)[C@@H](O)[C@@H]4O)[C@@H](NC(C)=O)C(O)O[C@@H]3CO)[C@@H]2O)(C(=O)O)C[C@@H]1O` (some centres unmarked) [sLe^x, Neu5Acα2-3Galβ1-4(Fucα1-3)GIcNAc, reference compound], in experiment [6] (BSA-sLe^x competition ELISA, solution-phase sLe^x), the IC50 was determined as 510 ± 60 µM. For the same compound, in [3] (BSA-sLe^x competition ELISA), the “blocking of L-selectin-Ig binding” value is listed as “failed to block L-selectin binding at concentrations up to 1 mM”.

On to `O=P(O)(O)O[C@@H]1[C@@H](O)[C@H](OP(=O)(O)O)[C@@H](OP(=O)(O)O)[C@H](O)[C@@H]1O` [L-isomer of Ins1,4,5 P3], for which the “inhibition of L-selectin-Ig binding” value in experiment [3] (preliminary competition ELISA, up to 700 μM) is “no inhibition at concentrations up to 700 μM”.

With `O=P(O)(O)O[C@@H]1[C@@H](O)[C@@H](O)[C@@H](OP(=O)(O)O)[C@H](OP(=O)(O)O)[C@H]1O` (relative stereo) [D, L-isomer mixture of Ins1,4,6 P3], the IC50 in [3] (preliminary competition ELISA, single experiment, read-out: IC50, L-selectin-Ig) worked out at 230 ± 90 µM.

Regarding `O=P(O)(O)O[C@@H]1[C@H](OP(=O)(O)O)[C@H](O)[C@@H](O)[C@H](O)[C@H]1OP(=O)(O)O` [1,2,6-triphosphate (IP3), 1,2,6-triphosphate], the inhibition of inflammation result in the experiment on inflammation was “modestly inhibit inflammation”.

Take `O=P(O)(O)OC1[C@H](O)[C@H](O)C(O)[C@H](O)[C@H]1O` (some centres unmarked) [InsP1, myo-inositol 1 monophosphate, reference compound]: in [3] (selected assays, in vitro), the “activity against L-selectin” value is on record as “no activity”. In addition, the “activity against P-selectin” value in experiment [5] (selected assays, in vitro) was “no activity”.

Regarding `O=C(O)CN(CCN(CC(=O)O)CC(=O)O)CC(=O)O` [EDTA, reference compound], the “inhibition profile, E-selectin” value in experiment [6] (setting [9]) was “same inhibition profile on all three selectins”. Moreover, the “blocking of E-selectin with chelator” value in experiment [6] (setting [10]) is “no blocking of any selectin up to a concentration of 1 mM”. Also, the “inhibition profile, L-selectin” value in experiment [3] (setting [9]) is reported as “same inhibition profile on all three selectins”. In [3] (setting [10]), the “blocking of L-selectin with chelator” value was “no blocking of any selectin up to a concentration of 1 mM”. The “effect of calcium chelator on L-selectin interaction with sulfatides” value in the experiment on L-selectin [7] was “largely unaffected”. The “inhibition profile, P-selectin” value in experiment [5] (setting [9]) is “same inhibition profile on all three selectins”. The “blocking of P-selectin with chelator” value in [5] (setting [10]) was “no blocking of any selectin up to a concentration of 1 mM”. Besides, the “effect of calcium chelator on P-selectin interaction with sulfatides” value in the experiment on P-selectin [8] is “largely unaffected”.

With heparin, the “L-selectin interaction / dependent adhesion” value with L-selectin [1] was “interact with both P- and L-selectin”. For the same compound, the “P-selectin interaction / dependent adhesion” value in the experiment with P-selectin [2] is “interact with both P- and L-selectin”.

The record behind these values is patent US5827837A, “Polyanion anti-inflammatory agents” (priority 1996, dated 1998).
